Assay results from ChEMBL document CHEMBL1201862, “PubChem BioAssay data set” (2004).
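Test compounds were applied to cells in 96-well plates for 48 hours at 5 doses. Abbreviation: GI50, concentration required for 50% inhibition of growth.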 The source made the active and inactive calls. Rule as the data show it: active = GI50 up to about 1.1 µM and inactive = higher.

Columns and labels:
Assay in all cases: growth of human tumour cells (NCI), 48 h
[1] = test system: KM12
[2] = test system: NCI-H226
[3] = test system: RPMI-8226
[4] = test system: SNB-19
[5] = test system: Hs-578T
[6] = test system: MOLT-4
[7] = test system: PC-3
[8] = test system: HL-60
[9] = test system: HOP-62
[10] = test system: OVCAR-8
[11] = test system: HCT-15
[12] = test system: DU-145
[13] = test system: COLO 205
[14] = test system: Malme-3M
[15] = test system: NCI/ADR-RES
[16] = test system: HCT-116
[17] = test system: SW-620
[18] = test system: U-251
[19] = test system: HT-29

Compound | GI50 [1] | GI50 [2] | GI50 [3] | GI50 [4] | GI50 [5] | GI50 [6] | GI50 [7] | GI50 [8] | GI50 [9] | GI50 [10] | GI50 [11] [µM] | GI50 [12] | GI50 [13] | GI50 [14] | GI50 [15] | GI50 [16] | GI50 [17] | GI50 [18] | GI50 [19]
Cc1c(C#N)c2nnn(-c3ccccc3)c(=O)n2c1-c1ccccc1 | 0.839 µM (active) | 2.84 µM (inactive) | 1.24 µM (inactive) | 3.31 µM (inactive) | 4.51 µM (inactive) | 1.58 µM (inactive) | 1.43 µM (inactive) | 0.376 µM (active) | 4.48 µM (inactive) | 7.19 µM (inactive) | 1.85 | 1.73 µM (inactive) | 0.49 µM (active) | 26.5 µM (inactive) | 1.12 µM (active) | 0.619 µM (active) | – | – | –
Cc1csc2n(C)c(=O)c3ccccc3[n+]12 | > 100 µM (inactive) | > 100 µM (inactive) | > 100 µM (inactive) | > 100 µM (inactive) | > 100 µM (inactive) | > 100 µM (inactive) | > 100 µM (inactive) | > 100 µM (inactive) | > 100 µM (inactive) | > 100 µM (inactive) | > 100 | > 100 µM (inactive) | > 100 µM (inactive) | – | > 100 µM (inactive) | > 100 µM (inactive) | > 100 µM (inactive) | > 100 µM (inactive) | > 100 µM (inactive)
O=C(O)c1ccc(Nc2nc3cc(C(F)(F)F)ccc3n3cccc23)cc1 | 19.8 µM (inactive) | – | 12.5 µM (inactive) | 54 µM (inactive) | 44.4 µM (inactive) | 25.1 µM (inactive) | 25.5 µM (inactive) | 18.4 µM (inactive) | 41 µM (inactive) | 49.5 µM (inactive) | 23.3 | 49.2 µM (inactive) | 22.5 µM (inactive) | 84.7 µM (inactive) | 61.9 µM (inactive) | 23.1 µM (inactive) | 34.7 µM (inactive) | 21.3 µM (inactive) | 10.4 µM (inactive)
COc1ccc(CC2NC(=O)/C=C/CC(C(C)C3OC3c3ccccc3)OC(=O)C(CC(C)C)OC(=O)C(C)CNC2=O)cc1Cl (stereo not given) | < 1e-05 µM (active) | 2.4e-05 µM (active) | 3.62e-05 µM (active) | – | 1.78e-05 µM (active) | 3.4e-05 µM (active) | 1.04e-05 µM (active) | < 1e-05 µM (active) | 1.76e-05 µM (active) | 2.32e-05 µM (active) | 1.06e-05 | 1.21e-05 µM (active) | < 1e-05 µM (active) | – | 4.81e-05 µM (active) | < 1e-05 µM (active) | 1.36e-05 µM (active) | 2.56e-05 µM (active) | < 1e-05 µM (active)
O=[N+]([O-])C(/C(Cl)=C(/Cl)N1CCOCC1)=C1\Nc2ccccc2O1 | > 100 µM (inactive) | > 100 µM (inactive) | > 100 µM (inactive) | > 100 µM (inactive) | > 100 µM (inactive) | > 100 µM (inactive) | > 100 µM (inactive) | – | > 100 µM (inactive) | > 100 µM (inactive) | > 100 | 70.3 µM (inactive) | > 100 µM (inactive) | > 100 µM (inactive) | 83.2 µM (inactive) | > 100 µM (inactive) | > 100 µM (inactive) | 86.9 µM (inactive) | > 100 µM (inactive)
COC(=O)C(CCSC)NC(=O)CNC(=O)CSc1nnc(COc2ccc(Cl)cc2)n1-c1ccccc1 (stereo not given) | 20.2 µM (inactive) | 18.8 µM (inactive) | 22.6 µM (inactive) | 69.3 µM (inactive) | 22.3 µM (inactive) | 5.36 µM (inactive) | 16.6 µM (inactive) | 19.3 µM (inactive) | 17.1 µM (inactive) | – | 18.3 | 23 µM (inactive) | 18.2 µM (inactive) | 18 µM (inactive) | 82.2 µM (inactive) | 16.9 µM (inactive) | 20.3 µM (inactive) | 17.3 µM (inactive) | 17.7 µM (inactive)
Oc1cccc(/C=N/N=c2/[nH][nH]/c(=N/N=C/c3cccc(O)c3)c3ccccc23)c1 | 25.2 µM (inactive) | 14.5 µM (inactive) | 11.5 µM (inactive) | 24.4 µM (inactive) | 18.7 µM (inactive) | 0.426 µM (active) | 15.8 µM (inactive) | – | 12.5 µM (inactive) | 2.72 µM (inactive) | 11 | 23.9 µM (inactive) | 30.4 µM (inactive) | 15.5 µM (inactive) | 22.2 µM (inactive) | 11.5 µM (inactive) | 14.6 µM (inactive) | 13.3 µM (inactive) | 24.1 µM (inactive)
c1ccc(C2OCC(OC3CCCCO3)CO2)cc1 (stereo not given) | – | > 100 µM (inactive) | > 100 µM (inactive) | > 100 µM (inactive) | 2.36 µM (inactive) | 5.24 µM (inactive) | > 100 µM (inactive) | > 100 µM (inactive) | > 100 µM (inactive) | > 100 µM (inactive) | > 100 | > 100 µM (inactive) | > 100 µM (inactive) | > 100 µM (inactive) | > 100 µM (inactive) | > 100 µM (inactive) | > 100 µM (inactive) | > 100 µM (inactive) | > 100 µM (inactive)
COC(=O)[C@H](Cc1c[nH]c2ccccc12)NC(=O)c1ccc(CNC(=O)/C=C/c2cccc(Oc3ccccc3)c2)cc1 | > 100 µM (inactive) | > 100 µM (inactive) | 62.4 µM (inactive) | 91.6 µM (inactive) | 34.7 µM (inactive) | 9.06 µM (inactive) | > 100 µM (inactive) | – | > 100 µM (inactive) | > 100 µM (inactive) | 81.7 | > 100 µM (inactive) | > 100 µM (inactive) | 22.8 µM (inactive) | > 100 µM (inactive) | > 100 µM (inactive) | > 100 µM (inactive) | > 100 µM (inactive) | > 100 µM (inactive)
CCN(CC)CCO/N=C1/C=C2CCC3C(CC[C@@]4(C)C3CC[C@]4(C)O)[C@@]2(C)CC1 (stereo not given in full) | 5.43 µM (inactive) | 2.49 µM (inactive) | 4.28 µM (inactive) | 11.6 µM (inactive) | 5.12 µM (inactive) | 1.91 µM (inactive) | 4.6 µM (inactive) | – | 4.06 µM (inactive) | 5.21 µM (inactive) | 2.29 | 6.37 µM (inactive) | 4.16 µM (inactive) | 3.64 µM (inactive) | 1.96 µM (inactive) | 4.21 µM (inactive) | – | 3.44 µM (inactive) | 1.82 µM (inactive)
COC(=O)c1c(OC(C)=O)ccc2c1c1cc3ccccc3c(OC(C)=O)c1n2C | 34.6 µM (inactive) | 37.2 µM (inactive) | 8.63 µM (inactive) | 68.5 µM (inactive) | 4.43 µM (inactive) | 5.75 µM (inactive) | 30.1 µM (inactive) | 19.3 µM (inactive) | 50 µM (inactive) | 14.2 µM (inactive) | 22.7 | 9.86 µM (inactive) | 21.8 µM (inactive) | 14.4 µM (inactive) | 34.8 µM (inactive) | 15.4 µM (inactive) | – | 61 µM (inactive) | 15.2 µM (inactive)
O=C1C(Cl)=C(N2CCN(CCOCCO)CC2)C(=O)c2ccccc21 | 16.3 µM (inactive) | 16.6 µM (inactive) | 3.45 µM (inactive) | 23.8 µM (inactive) | 19.1 µM (inactive) | 2.05 µM (inactive) | 18 µM (inactive) | 1.67 µM (inactive) | – | 14.9 µM (inactive) | 11.9 | 19.2 µM (inactive) | 15.2 µM (inactive) | 6.07 µM (inactive) | 12.2 µM (inactive) | 3.97 µM (inactive) | 1.72 µM (inactive) | 17.3 µM (inactive) | 16 µM (inactive)
CCC/C=C/C=C/C(=O)OC1C(C)C2(O)C3C=C(C)C(=O)C3CC(COC(C)=O)=CC2C2C(C)(C)C12OC(=O)C(C)C (stereo not given) | 16.9 µM (inactive) | 15.8 µM (inactive) | 11.8 µM (inactive) | 25.7 µM (inactive) | 0.084 µM (active) | 0.966 µM (active) | 11.6 µM (inactive) | 0.532 µM (active) | 0.0438 µM (active) | 22.8 µM (inactive) | – | 29.6 µM (inactive) | 0.197 µM (active) | 13.4 µM (inactive) | 21.5 µM (inactive) | 13.8 µM (inactive) | 0.622 µM (active) | – | 12.1 µM (inactive)
C[C@@H]1C(O)CC[C@H](C)C12CC=CC2=O (stereo not given in full) | – | > 100 µM (inactive) | > 100 µM (inactive) | > 100 µM (inactive) | > 100 µM (inactive) | > 100 µM (inactive) | > 100 µM (inactive) | > 100 µM (inactive) | > 100 µM (inactive) | – | > 100 | > 100 µM (inactive) | > 100 µM (inactive) | > 100 µM (inactive) | > 100 µM (inactive) | > 100 µM (inactive) | > 100 µM (inactive) | > 100 µM (inactive) | > 100 µM (inactive)
CC#Cc1ccc(-c2ccccc2)s1 | > 100 µM (inactive) | > 100 µM (inactive) | – | > 100 µM (inactive) | > 100 µM (inactive) | > 100 µM (inactive) | > 100 µM (inactive) | > 100 µM (inactive) | – | > 100 µM (inactive) | > 100 | > 100 µM (inactive) | > 100 µM (inactive) | – | > 100 µM (inactive) | > 100 µM (inactive) | > 100 µM (inactive) | > 100 µM (inactive) | > 100 µM (inactive)
COc1ccc(C(=O)/C=C/c2ccc(Oc3cc(C(=O)/C=C/c4ccc(O)cc4)c(O)cc3OC)cc2)c(O)c1 [RHUSCHALCONE I] | 2.65 µM (inactive) | – | 1.85 µM (inactive) | 8.3 µM (inactive) | 16.7 µM (inactive) | 2.52 µM (inactive) | 4.84 µM (inactive) | 3.08 µM (inactive) | 4.83 µM (inactive) | 3.45 µM (inactive) | 2.43 | 5.96 µM (inactive) | 4.34 µM (inactive) | 17.2 µM (inactive) | 3.24 µM (inactive) | 1.87 µM (inactive) | 4.72 µM (inactive) | 3.79 µM (inactive) | 2.23 µM (inactive)
